Results reported in US10670605B2, “Cysteine reactive probes and uses thereof” (The Scripps Research Institute, priority 2015, dated 2020).
One block for each compound: values may come before it.

Key:
Assay in all cases: Competitive isoTOP-ABPP in situ (fragment-treated cells)
Type in all cases: cell-based
[1] = biological target: T1, cysteines in MDA-MB-231 and Ramos cells (Homo sapiens, UniProt O95571)
T1 sequence (O95571 8-254): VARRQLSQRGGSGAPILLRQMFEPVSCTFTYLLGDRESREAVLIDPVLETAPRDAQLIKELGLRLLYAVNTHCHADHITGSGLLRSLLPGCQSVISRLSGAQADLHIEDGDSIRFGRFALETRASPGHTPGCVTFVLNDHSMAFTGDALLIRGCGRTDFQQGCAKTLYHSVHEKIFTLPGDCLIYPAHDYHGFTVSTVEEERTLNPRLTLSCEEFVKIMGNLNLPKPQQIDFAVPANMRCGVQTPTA

[2] = biological target: cysteines in MDA-MB-231 and Ramos cells (Homo sapiens, UniProt P12268)
[3] = biological target: T2, cysteines in MDA-MB-231 and Ramos cells (Homo sapiens, UniProt P23919)
T2 sequence (P23919 1-212): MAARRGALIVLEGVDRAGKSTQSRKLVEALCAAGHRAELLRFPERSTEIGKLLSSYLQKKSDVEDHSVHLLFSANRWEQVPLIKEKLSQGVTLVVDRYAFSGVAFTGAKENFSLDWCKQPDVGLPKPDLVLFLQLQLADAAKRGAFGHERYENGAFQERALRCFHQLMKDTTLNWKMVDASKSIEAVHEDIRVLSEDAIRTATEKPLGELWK

[4] = biological target: T3, cysteines in MDA-MB-231 and Ramos cells (Homo sapiens, UniProt P42166)
T3 sequence (P42166 1-694): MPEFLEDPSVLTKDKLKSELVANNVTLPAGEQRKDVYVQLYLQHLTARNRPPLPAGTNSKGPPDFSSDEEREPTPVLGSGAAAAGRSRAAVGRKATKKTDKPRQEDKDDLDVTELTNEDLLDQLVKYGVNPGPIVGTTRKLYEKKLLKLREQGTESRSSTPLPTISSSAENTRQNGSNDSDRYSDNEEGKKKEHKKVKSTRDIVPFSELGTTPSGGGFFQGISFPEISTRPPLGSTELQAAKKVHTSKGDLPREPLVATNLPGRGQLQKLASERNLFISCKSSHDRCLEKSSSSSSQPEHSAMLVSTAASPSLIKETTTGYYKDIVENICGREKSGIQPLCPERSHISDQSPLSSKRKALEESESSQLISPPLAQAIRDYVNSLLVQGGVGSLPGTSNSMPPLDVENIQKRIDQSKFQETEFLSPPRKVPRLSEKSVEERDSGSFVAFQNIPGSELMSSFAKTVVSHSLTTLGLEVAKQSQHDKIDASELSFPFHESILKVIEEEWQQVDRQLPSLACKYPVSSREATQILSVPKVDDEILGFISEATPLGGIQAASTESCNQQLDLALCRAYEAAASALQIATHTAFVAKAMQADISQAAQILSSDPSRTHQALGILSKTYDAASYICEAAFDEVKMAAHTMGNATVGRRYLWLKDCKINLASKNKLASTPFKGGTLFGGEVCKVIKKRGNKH

[5] = biological target: cysteines in MDA-MB-231 and Ramos cells (Homo sapiens, UniProt P61978)
[6] = biological target: T4, cysteines in MDA-MB-231 and Ramos cells (Homo sapiens, UniProt Q15233)
T4 sequence (Q15233 1-471): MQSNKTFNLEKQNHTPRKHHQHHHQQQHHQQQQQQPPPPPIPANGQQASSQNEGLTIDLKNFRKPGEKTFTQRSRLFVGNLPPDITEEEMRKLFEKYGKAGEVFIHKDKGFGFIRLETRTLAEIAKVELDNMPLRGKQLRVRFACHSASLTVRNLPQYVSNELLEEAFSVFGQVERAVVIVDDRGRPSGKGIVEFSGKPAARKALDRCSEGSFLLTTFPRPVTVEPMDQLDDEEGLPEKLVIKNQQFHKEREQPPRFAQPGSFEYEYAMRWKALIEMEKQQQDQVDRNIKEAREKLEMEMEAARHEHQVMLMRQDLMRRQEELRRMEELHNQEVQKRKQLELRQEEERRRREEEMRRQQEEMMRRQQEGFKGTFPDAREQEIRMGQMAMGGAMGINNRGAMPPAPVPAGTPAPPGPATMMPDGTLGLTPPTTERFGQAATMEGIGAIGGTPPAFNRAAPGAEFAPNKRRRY

[7] = biological target: T5, cysteines in MDA-MB-231 and Ramos cells (Homo sapiens, UniProt Q96CM8)
T5 sequence (Q96CM8 42-615): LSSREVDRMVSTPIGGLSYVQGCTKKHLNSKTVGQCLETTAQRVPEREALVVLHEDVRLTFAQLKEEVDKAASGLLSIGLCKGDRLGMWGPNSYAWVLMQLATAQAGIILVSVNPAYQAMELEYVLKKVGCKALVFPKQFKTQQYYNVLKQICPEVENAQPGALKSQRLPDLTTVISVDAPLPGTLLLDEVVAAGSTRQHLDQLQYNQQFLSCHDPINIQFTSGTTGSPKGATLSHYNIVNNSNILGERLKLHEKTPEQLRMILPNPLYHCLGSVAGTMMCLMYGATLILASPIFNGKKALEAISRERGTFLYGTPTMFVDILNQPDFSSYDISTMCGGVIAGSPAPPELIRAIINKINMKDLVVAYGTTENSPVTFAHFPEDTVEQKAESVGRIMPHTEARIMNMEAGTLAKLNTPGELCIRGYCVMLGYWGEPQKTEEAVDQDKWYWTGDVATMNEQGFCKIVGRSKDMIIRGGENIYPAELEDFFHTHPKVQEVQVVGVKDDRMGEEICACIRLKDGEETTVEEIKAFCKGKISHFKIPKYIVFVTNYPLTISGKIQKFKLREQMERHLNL

[8] = biological target: cysteines in MDA-MB-231 and Ramos cells (Homo sapiens, UniProt Q9ULV4)
cysteines in MDA-MB-231 and Ramos cells (Homo sapiens, UniProt Q9ULV4), sequence (Q9ULV4 whole entry): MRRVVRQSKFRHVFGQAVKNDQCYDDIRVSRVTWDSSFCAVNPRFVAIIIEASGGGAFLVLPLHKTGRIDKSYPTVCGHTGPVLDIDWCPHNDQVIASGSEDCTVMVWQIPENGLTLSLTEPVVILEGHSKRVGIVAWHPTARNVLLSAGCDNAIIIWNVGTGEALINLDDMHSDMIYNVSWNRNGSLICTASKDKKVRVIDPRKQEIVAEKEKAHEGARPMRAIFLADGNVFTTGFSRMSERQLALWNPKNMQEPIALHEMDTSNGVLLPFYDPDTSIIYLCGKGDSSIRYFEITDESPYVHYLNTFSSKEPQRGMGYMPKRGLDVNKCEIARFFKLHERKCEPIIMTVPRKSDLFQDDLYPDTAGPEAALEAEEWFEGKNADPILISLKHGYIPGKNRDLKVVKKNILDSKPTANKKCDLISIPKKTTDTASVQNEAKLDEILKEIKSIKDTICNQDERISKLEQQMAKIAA

isoTOP-ABPP ratio O95571_C170 ([1]; 100 μM in situ 231): 1.2
isoTOP-ABPP ratio P12268_C140 ([2]; 100 μM in situ 231): 0.6
isoTOP-ABPP ratio P12268_C331 ([2]; 100 μM in situ 231): 1.0
isoTOP-ABPP ratio, cysteine P23919_C163 ([3]; 100 μM in situ 231): 0.2
isoTOP-ABPP ratio P42166_C341 ([4]; 100 μM in situ 231): 0.8
isoTOP-ABPP ratio P42166_C561 ([4]; 100 μM in situ 231): 0.6
isoTOP-ABPP ratio, cysteine P42166_C518 ([4]; 100 μM in situ 231): 0.8
isoTOP-ABPP ratio, cysteine P42166_C629 ([4]; 100 μM in situ 231): 0.6
isoTOP-ABPP ratio, cysteine P42166_C684 ([4]; 100 μM in situ 231): 0.7
isoTOP-ABPP ratio P61978_C132 ([5]; 100 μM in situ 231): 0.9
isoTOP-ABPP ratio Q15233_C145 ([6]; 100 μM in situ 231): 1.2
isoTOP-ABPP ratio Q96CM8_C64 ([7]; 100 μM in situ 231): 1.5
isoTOP-ABPP ratio Q9ULV4_C420 ([8]; 100 μM in situ 231): 0.9
Compound: Cn1cc(S(=O)(=O)N2CCOCC2)cc1C(=O)NC(=O)CCl [compound 11]

isoTOP-ABPP reactivity O95571_C170 ETHE1 ([1]; 200 μM, insitu, 231): 6.8
isoTOP-ABPP reactivity P12268_C140 IMPDH2 ([2]; 200 μM, insitu, 231): 0.9
isoTOP-ABPP reactivity P23919_C117 DTYMK ([3]; 200 μM, insitu, 231): 0.4
isoTOP-ABPP reactivity P23919_C163 DTYMK ([3]; 200 μM, insitu, 231): 0.6
isoTOP-ABPP reactivity P42166_C341 TMPO ([4]; 200 μM, insitu, 231): 4.4
isoTOP-ABPP reactivity P42166_C561 TMPO ([4]; 200 μM, insitu, 231): 4.6
isoTOP-ABPP reactivity P42166_C629 TMPO ([4]; 200 μM, insitu, 231): 1.7
isoTOP-ABPP reactivity P42166_C684 TMPO ([4]; 200 μM, insitu, 231): 4.6
isoTOP-ABPP reactivity P61978_C132 HNRNPK ([5]; 200 μM, insitu, 231): 4.2
isoTOP-ABPP reactivity Q15233_C145 NONO ([6]; 200 μM, insitu, 231): 12.0
isoTOP-ABPP reactivity Q96CM8_C64 ACSF2 ([7]; 200 μM, insitu, 231): 20.0
isoTOP-ABPP reactivity Q9ULV4_C420 CORO1C ([8]; 200 μM, insitu, 231): 4.6
Compound: COc1cc2c(cc1OC)CN(C(=O)CCl)CC2 [compound 8]

isoTOP-ABPP ratio O95571_C170 ([1]; 200 μM, insitu, 231): 1.2
isoTOP-ABPP ratio O95571_C170 ([1]; 200 μM, insitu, ramos): 1.9
isoTOP-ABPP ratio P12268_C140 ([2]; 200 μM, insitu, 231): 0.7
isoTOP-ABPP ratio P12268_C331 ([2]; 200 μM, insitu, ramos): 1.4
isoTOP-ABPP ratio, cysteine P23919_C117 ([3]; 200 μM, insitu, 231): 0.6
isoTOP-ABPP ratio P42166_C341 ([4]; 200 μM, insitu, 231): 1.3
isoTOP-ABPP ratio P42166_C561 ([4]; 200 μM, insitu, 231): 1.2
isoTOP-ABPP ratio, cysteine P42166_C629 ([4]; 200 μM, insitu, 231): 1.0
isoTOP-ABPP ratio, cysteine P42166_C684 ([4]; 200 μM, insitu, 231): 1.2
isoTOP-ABPP ratio P42166_C341 ([4]; 200 μM, insitu, ramos): 1.4
isoTOP-ABPP ratio P42166_C561 ([4]; 200 μM, insitu, ramos): 1.0
isoTOP-ABPP ratio P61978_C132 ([5]; 200 μM, insitu, 231): 1.1
isoTOP-ABPP ratio P61978_C132 ([5]; 200 μM, insitu, ramos): 1.1
isoTOP-ABPP ratio Q15233_C145 ([6]; 200 μM, insitu, 231): 1.0
isoTOP-ABPP ratio Q15233_C145 ([6]; 200 μM, insitu, ramos): 1.1
isoTOP-ABPP ratio Q96CM8_C64 ([7]; 200 μM, insitu, 231): 1.4
isoTOP-ABPP ratio Q9ULV4_C420 ([8]; 200 μM, insitu, 231): 1.1
isoTOP-ABPP ratio Q9ULV4_C420 ([8]; 200 μM, insitu, ramos): 1.1
Compound: O=C(CCl)NCCc1c[nH]c2ccccc12 [compound 13]

isoTOP-ABPP reactivity O95571_C170 ETHE1 ([1]; 100 μM in situ 231): 2.3
isoTOP-ABPP reactivity P12268_C140 IMPDH2 ([2]; 100 μM in situ 231): 1.0
isoTOP-ABPP reactivity P12268_C331 IMPDH2 ([2]; 100 μM in situ 231): 4.6
isoTOP-ABPP reactivity P23919_C163 DTYMK ([3]; 100 μM in situ 231): 0.4
isoTOP-ABPP reactivity P42166_C561 TMPO ([4]; 100 μM in situ 231): 20.0
isoTOP-ABPP reactivity P61978_C132 HNRNPK ([5]; 100 μM in situ 231): 3.8
isoTOP-ABPP reactivity Q15233_C145 NONO ([6]; 100 μM in situ 231): 1.6
isoTOP-ABPP reactivity Q96CM8_C64 ACSF2 ([7]; 100 μM in situ 231): 20.0
isoTOP-ABPP reactivity Q9ULV4_C420 CORO1C ([8]; 100 μM in situ 231): 1.3
Compound: COc1ccc(C2CC(c3cccs3)=NN2C(=O)CCl)cc1 (stereo not shown) [compound 4]
